According to PMC4965013, “Open Source Drug Discovery with the Malaria Box Compound Collection for Neglected Diseases and Beyond” (PLoS Pathogens, 2016):
Like-named read-outs stand apart in the source and are kept apart here.

How the values were obtained:
P. falciparum 3D7 = test: [3H]-hypoxanthine growth inhibition, modified HCO3- or O2; format: cell-based; conditions: for IC50: Plasmodium falciparum
[1] = tested on: P. falciparum 3D7 trophozoites; test: Metabolomic fingerprint profiling LC-MS; format: cell-based, Plasmodium falciparum; set-up: UDP-D-glucose / ADP-D-glucose: unit not given here; conditions: for Acetyllysine / N-acetyl-L-ornithine / N-carbamoyl-L-aspartate / NADPH / dAMP / dCMP / dTDP / dTMP / dTTP / dihydroorotate / orotate / DLH / DLS/SDL/SID / PD / PEE / PVNF / 3-phosphoglycerate / ADP-D-glucose / ATP / CDP / D-sedoheptulose-1/7-phosphate / FAD / GMP / NAD+ / NADP+ / Octoluse Bisphosphate / Pyroglutamic acid / UDP-D-glucose / UDP-D-glucuronate / UDP-N-acetyl-glucosamine / UDP / UMP / UTP / a-ketoglutarate / citrate/isocitrate / cytidine / dATP / dGMP/AMP / fumarate / glucose-1/6-phosphate / glycerate / guanine / guanosine / hypoxanthine / indole / inosine / nicotinate / ornithine / phosphoenolpyruvate / pyruvate / ribose-phosphate / sarcosine/alanine / sn-glycerol-3-phosphate / succinate/methylmalonic acid / uridine / xanthosine: S2 Table Metabolomics; for Acetyllysine: metabolite Acetyllysine; for N-acetyl-L-ornithine: metabolite N-acetyl-L-ornithine; for N-carbamoyl-L-aspartate: metabolite N-carbamoyl-L-aspartate; for NADPH: metabolite NADPH; for dAMP: metabolite dAMP; for dCMP: metabolite dCMP; for dTDP: metabolite dTDP; for dTMP: metabolite dTMP; for dTTP: metabolite dTTP; for dihydroorotate: metabolite dihydroorotate; for orotate: metabolite orotate; for DLH: peptide DLH; for DLS/SDL/SID: peptide DLS/SDL/SID; for PD: peptide PD; for PEE: peptide PEE; for PVNF: peptide PVNF; for 3-phosphoglycerate: metabolite 3-phosphoglycerate; for ADP-D-glucose: metabolite ADP-D-glucose; for ATP: metabolite ATP; for CDP: metabolite CDP; for CDP / D-sedoheptulose-1/7-phosphate / GMP / Octoluse Bisphosphate / UDP / UMP / UTP / citrate/isocitrate / dGMP/AMP / fumarate / glucose-1/6-phosphate / glycerate / guanine / guanosine / inosine / pyruvate / sarcosine/alanine / succinate/methylmalonic acid / uridine / xanthosine: change in metabolite level after compound treatment; for D-sedoheptulose-1/7-phosphate: metabolite D-sedoheptulose-1/7-phosphate; for FAD: metabolite FAD; for GMP: metabolite GMP; for NAD+: metabolite NAD+; for NADP+: metabolite NADP+; for Octoluse Bisphosphate: metabolite Octoluse Bisphosphate; for Pyroglutamic acid: metabolite Pyroglutamic acid; for UDP-D-glucose: metabolite UDP-D-glucose; for UDP-D-glucuronate: metabolite UDP-D-glucuronate; for UDP-N-acetyl-glucosamine: metabolite UDP-N-acetyl-glucosamine; for UDP: metabolite UDP; for UMP: metabolite UMP; for UTP: metabolite UTP; for a-ketoglutarate: metabolite a-ketoglutarate; for citrate/isocitrate: metabolite citrate/isocitrate; for cytidine: metabolite cytidine; for dATP: metabolite dATP; for dGMP/AMP: metabolite dGMP/AMP; for fumarate: metabolite fumarate; for glucose-1/6-phosphate: metabolite glucose-1/6-phosphate; for glycerate: metabolite glycerate; for guanine: metabolite guanine; for guanosine: metabolite guanosine; for hypoxanthine: metabolite hypoxanthine; for indole: metabolite indole; for inosine: metabolite inosine; for 2_3-Diphosphoglyceric acid / 4-phosphopantothenate / 6-phospho-D-gluconate / FMN / IMP / Pyrophosphate / Sedoheptoluse bisphosphate / cyclic-AMP / glutathione disulfide / lactate / myo-inositol: metabolite level change after treatment; for nicotinate: metabolite nicotinate; for ornithine: metabolite ornithine; for phosphoenolpyruvate: metabolite phosphoenolpyruvate; for pyruvate: metabolite pyruvate; for ribose-phosphate: metabolite ribose-phosphate; for sarcosine/alanine: metabolite sarcosine/alanine; for sn-glycerol-3-phosphate: metabolite sn-glycerol-3-phosphate; for succinate/methylmalonic acid: metabolite succinate/methylmalonic acid; for uridine: metabolite uridine; for xanthosine: metabolite xanthosine
P. falciparum = test: EC50 listed in S2 Table Metabolomics (used to set the concentration tested); format: cell-based; conditions: Plasmodium falciparum; EC50 used for Factor_XEC50 in metabolomics; read-out: EC50_nM

## CNCCCNc1ccnc2cc(Cl)ccc12 [MMV020500]
P. falciparum 3D7
  fold change (IC50reduced/IC50normal): 3.9
P. falciparum 3D7; 3D7, read-out: P. falciparum 3D7 IC50 HCO3- (2g/L), standard media
  IC50: 40 nM
P. falciparum 3D7; 3D7, HCO3- reduced media, read-out: P. falciparum 3D7 IC50 HCO3- reduced
  IC50: 155 nM
[1]
  Acetyllysine: -2.213
  N-acetyl-L-ornithine: -0.8185
  N-carbamoyl-L-aspartate: 0.6081
  NADPH: 0.8295
  dAMP: 1.814
  dCMP: 0.8961
  dTDP: 0.7101
  dTMP: 2.186
  dTTP: -0.2992
  dihydroorotate: 0.1598
  orotate: 0.0865
  DLH: -2.137
  DLS/SDL/SID: -0.7574
  PD: -1.597
  PEE: -0.2916
  PVNF: -1.612
  3-phosphoglycerate: 0.07452
  ADP-D-glucose: -0.08737
  ATP: -0.9785
  CDP: 0.5532
  D-sedoheptulose-1/7-phosphate: 1.176
  FAD: -0.249
  GMP: 1.138
  NAD+: 0.8214
  NADP+: -0.06525
  Octoluse Bisphosphate: -0.4524
  Pyroglutamic acid: 0.1099
  UDP-D-glucose: -0.02951
  UDP-D-glucuronate: -0.3318
  UDP-N-acetyl-glucosamine: 0.05445
  UDP: 0.8779
  UMP: 0.5345
  UTP: -0.9493
  a-ketoglutarate: 0.1415
  citrate/isocitrate: -0.9893
  cytidine: -0.1492
  dATP: -0.4735
  dGMP/AMP: 1.367
  fumarate: -0.1707
  glucose-1/6-phosphate: -0.009969
  glycerate: -0.6605
  guanine: 0.2615
  guanosine: -0.1451
  hypoxanthine: -0.2256
  indole: -0.03127
  inosine: 0.04049
  2_3-Diphosphoglyceric acid: -0.286
  4-phosphopantothenate: 0.7597
  6-phospho-D-gluconate: 0.1729
  FMN: 0.009843
  IMP: 0.8224
  Pyrophosphate: -0.4794
  Sedoheptoluse bisphosphate: -0.0186
  cyclic-AMP: 0.9961
  glutathione disulfide: -0.1428
  lactate: -0.3926
  myo-inositol: -0.6279
  nicotinate: 0.7754
  ornithine: -0.4966
  phosphoenolpyruvate: 0.07414
  pyruvate: -0.1857
  ribose-phosphate: -0.6716
  sarcosine/alanine: -0.5483
  sn-glycerol-3-phosphate: -0.4228
  succinate/methylmalonic acid: 0.4498
  uridine: -0.2827
  xanthosine: -0.8962
P. falciparum
  EC50: 82.2 nM

## Oc1ccccc1CNCC12CC3CC(CC(C3)C1)C2 [MMV020788]
P. falciparum 3D7
  fold change (IC50normal/ IC50hypoxia): 2.2
P. falciparum 3D7; 3D7, read-out: P. falciparum 3D7 IC50 1% O2, 1% O2 hypoxia
  IC50: 63 nM
P. falciparum 3D7; 3D7, read-out: P. falciparum 3D7 IC50 5% O2
  IC50: 136 nM
[1]
  Acetyllysine: -2.885
  N-acetyl-L-ornithine: -2.954
  N-carbamoyl-L-aspartate: -1.526
  NADPH: 0.03625
  dAMP: 0.309
  dCMP: -0.3685
  dTDP: -0.06212
  dTMP: -0.1581
  dTTP: -0.254
  dihydroorotate: -1.002
  orotate: -1.435
  DLH: -2.982
  DLS/SDL/SID: -2.352
  PD: -3.15
  PEE: -2.856
  PVNF: -2.845
  3-phosphoglycerate: 0.739
  ADP-D-glucose: -0.1615
  ATP: -0.008574
  CDP: 0.1968
  D-sedoheptulose-1/7-phosphate: -0.6783
  FAD: -0.02526
  GMP: -0.06975
  NAD+: -0.1588
  NADP+: -0.008021
  Octoluse Bisphosphate: -0.4633
  Pyroglutamic acid: -0.07383
  UDP-D-glucose: 0.01367
  UDP-D-glucuronate: -0.09612
  UDP-N-acetyl-glucosamine: -0.01836
  UDP: -0.3321
  UMP: -0.241
  UTP: -0.2582
  a-ketoglutarate: -0.5092
  citrate/isocitrate: -0.2786
  cytidine: 0.02539
  dATP: -0.1887
  dGMP/AMP: 0.3187
  fumarate: -0.7339
  glucose-1/6-phosphate: -0.008522
  glycerate: -0.4973
  guanine: -0.3533
  guanosine: -0.149
  hypoxanthine: -0.5956
  indole: -0.4443
  inosine: -0.3499
  2_3-Diphosphoglyceric acid: 0.3339
  4-phosphopantothenate: -0.308
  6-phospho-D-gluconate: 0.001521
  FMN: -0.2331
  IMP: -0.5843
  Pyrophosphate: 0.1188
  Sedoheptoluse bisphosphate: -0.1032
  cyclic-AMP: -0.6828
  glutathione disulfide: -0.3605
  lactate: -0.4043
  myo-inositol: -0.5298
  nicotinate: -0.1476
  ornithine: -0.2765
  phosphoenolpyruvate: 0.5824
  pyruvate: 0.6752
  ribose-phosphate: 0.658
  sarcosine/alanine: -1.087
  sn-glycerol-3-phosphate: 0.6534
  succinate/methylmalonic acid: 0.06183
  uridine: -0.2427
  xanthosine: -0.4659
P. falciparum
  EC50: 22.6 nM
